The record followed here is patent US20250255834A1, “ANXIOLYTIC COMPOSITION, FORMULATION AND METHOD OF USE” (priority 2012, published 2025).

For this experiment, the system named is anxiety. Briefly: Intranasal ketamine spray given to individual adult subjects for anxiety before a procedure or flight (case reports).

As for `CNC1(c2ccccc2Cl)CCCCC1=O` (stereo not drawn) [ketamine], the “duration of relief from anxiety and calming effect” value lay in the range of 15 to 30 min (Example I: healthy person, intranasal, about 0.2-0.3 mg/kg) and 15 to 30 min (Example II: person with severe dental phobia, intranasal unit dose as in Example I). The “development of anxiety during the dental procedure” value (Example II: person with severe dental phobia, dental extraction under local anesthetic, intranasal unit dose before travel, additional dosage in the waiting room) is “without the development of anxiety”.
